Series [1] deals with Wistar rat. Put plainly: Acute toxicity of chromone derivative, oral, rats. In kind it is in vivo. As to conditions: male rats, 500 mg/kg orally. The method, then:
(§1) The acute toxicity of the chromone derivative of the present invention was evaluated, for Crj:CD-1(ICR) mice (male; 6 weeks old) and Wistar rat (male; 6 weeks old). […] In the experiments as above, two animals were used for each group.

Series [2] deals with Crj:CD-1(ICR) mice. The series can be described thus: Acute toxicity of chromone derivative, oral, mice. In kind it is in vivo, mouse. To be noted: male mice, 500 mg/kg orally. The protocol: as §1
In series [3] the test system is Mouse melanoma (B16-BL6) cells. The series can be described thus: Antitumor activity to mouse melanoma-cells-implanted mouse. The class given is in vivo. As to conditions: 100 mg/kg orally once a day for 13 days, C57BL/6N mice. The method, then: Mouse melanoma (B16-BL6) cells were subcutaneously implanted in the amount 1×10^6 cells in C57BL/6N mice (6 weeks old, male) at the axillary fossa. From the day after the implantation, 2-pyrrolylthiochromone was orally administered once a day for 13 days. The composition to be administered was preparedby dissolving 2-pyrrolylthiochromone powder in sesame oil, and administered at the dose of 100 mg of the compound per 1 kg of the mouse body weight. The amount of sesame oil administered was 10 ml/kg of the mouse body weight. To the control group, only sesame oil was administered. At the next day of the last administration day, the mice were sacrificed, and the weight of the tumor was measured. For the control group where the present compound was not administered, five mice were used, whereas 6 mice were used for the group where the present compound was administered.

For `COc1cc(OC)c2c(=O)cc(-n3cnc4ccccc43)oc2c1` [2-benzimidazolyl-5,7-dimethoxychromone], the “change in general state and body weight in comparison with the control group” value in series [1] (observed for 7 days) and in series [2] (observed for 7 days) was “no change was observed” throughout. The remarkable toxicity entry in series [1] (observed for seven days) and in series [2] (observed for seven days) was “no remarkable toxicity” each time.

For `O=c1cc(-n2cccc2)sc2ccccc12` [2-pyrrolylthiochromone], the “decrease in the body weight due to the administration” value in series [3] is “not observed”. The “inhibitory activity for the tumor growth (tumor weight) in comparison with the control group” value in series [3] (B16-BL6 subcutaneous, FIG. 3) worked out at 36.7%.

The values are drawn from patent publication US5698575A, “Chromone compounds, pharmaceutical compositions containing the same, and use of the same” (Kureha Chemical Industry Co., Ltd., priority 1995, dated 1997).
